≈ marks a conversion by molar mass, not a printed value.
Columns and labels:
[1] = test system: Mycobacterium tuberculosis; assay: Antitubercular activity against Mycobacterium tuberculosis H37Rv by Lowensteine-Jensen method; assay type: functional
[2] = test system: Mycobacterium tuberculosis; assay: Antitubercular activity against Mycobacterium tuberculosis H37Rv; assay type: functional
HepG2 = assay: Cytotoxicity against human HepG2 cells; assay type: cell-based
[3] = test system: Mycobacterium tuberculosis; assay: Antitubercular activity against Mycobacterium tuberculosis spec.210; assay type: functional
[4] = test system: Mycobacterium tuberculosis; assay: Antitubercular activity against Mycobacterium tuberculosis spec.192; assay type: functional
[5] = test system: Mycobacterium tuberculosis; assay: Antitubercular activity against Mycobacterium tuberculosis; assay type: functional
[6] = test system: Mycobacterium tuberculosis; assay: Potency index, ratio of pyrazinamide MIC to compound MIC for Mycobacterium tuberculosis H37Rv; assay type: functional
[7] = test system: Mycobacterium tuberculosis; assay: Potency index, ratio of pyrazinamide MIC to compound MIC for Mycobacterium tuberculosis; assay type: functional

Row | Structure (SMILES) | MIC [1] [µg/mL] | MIC [2] | MIC [3] [µM] | MIC [4] [µM] | also measured
1 | O=C(NCCCn1ncc2ccc([N+](=O)[O-])cc21)N1C(=O)C(Cl)C1c1ccc([N+](=O)[O-])cc1 (configuration not stated) | 6.25 to 50 (≈ 13.2 to 106 µM) | – | – | – | –
2 | CC1=NN(C(=O)c2cc(-c3ccc(Cl)cc3)n[nH]2)C(=O)/C1=N\Nc1ccc(F)cc1 | – | 0.35 µg/mL | – | – | IC50 (HepG2): > 500 µM
3 | CCOC(=O)C1=C(C)NC(C)=C(C(=O)OCC)C1c1cn(-c2ccccc2)nc1-c1ccc(F)cc1 | – | 0.02 µg/mL | – | – | –
4 | COc1ccc(C2C(Cl)C(=O)N2C(=O)NCCCn2ncc3ccc([N+](=O)[O-])cc32)cc1 (configuration not stated) | 6.25 to 50 (≈ 13.7 to 109 µM) | – | – | – | –
5 | CCc1ccc(-n2cc(Cn3ncc4c3CCN(C(=O)Nc3ccccc3)C4)nn2)cc1 | – | 24.7 to 200 µM | 24.7 to 200 (≈ 10.6 to 85.5 µg/mL) | 24.7 to 200 (≈ 10.6 to 85.5 µg/mL) | –
6 | COc1cccc(C2C(Cl)C(=O)N2C(=O)NCCCn2ncc3ccc([N+](=O)[O-])cc32)c1 (configuration not stated) | 6.25 to 50 (≈ 13.7 to 109 µM) | – | – | – | –
7 | O=C(Nc1ccccc1)N1CCc2c(cnn2Cc2cn(-c3ccc(Br)c(OC(F)(F)F)c3)nn2)C1 | – | 24.7 to 200 µM | 24.7 to 200 (≈ 13.9 to 112 µg/mL) | 24.7 to 200 (≈ 13.9 to 112 µg/mL) | –
8 | O=C(Nc1ccccc1)N1CCc2c(cnn2Cc2cn(-c3ccc(OC(F)(F)F)cc3)nn2)C1 | – | 24.7 to 200 µM | 24.7 to 200 (≈ 12 to 96.7 µg/mL) | 24.7 to 200 (≈ 12 to 96.7 µg/mL) | –
9 | Nc1nc(-c2ccc(O)cc2)cc(-c2cn(-c3ccccc3)nc2-c2ccc(F)cc2)n1 | – | – | – | – | IC90 [5]: 0.88 µg/mL (≈ 2.08 µM)
10 | Cc1cc(-n2nc(C(=O)NCc3ccc(OC(F)(F)F)cc3)cc2-c2cccnc2)c2cccc(C(F)(F)F)c2n1 | – | 3.13 µg/mL | – | – | Ratio [6]: 16
11 | O=C(NCCCn1ncc2ccc([N+](=O)[O-])cc21)N1C(=O)C(Cl)C1c1ccccc1 (configuration not stated) | 6.25 to 50 (≈ 14.6 to 117 µM) | – | – | – | –
12 | O=C(Nc1ccccc1)N1CCc2c(cnn2Cc2cn(-c3ccccc3[N+](=O)[O-])nn2)C1 | – | 24.7 to 200 µM | 24.7 to 200 (≈ 11 to 88.9 µg/mL) | 24.7 to 200 (≈ 11 to 88.9 µg/mL) | –
13 | Cc1ccc(-n2cc(Cn3ncc4c3CCN(C(=O)Nc3ccccc3)C4)nn2)cc1 | – | 24.7 to 200 µM | 24.7 to 200 (≈ 10.2 to 82.7 µg/mL) | 24.7 to 200 (≈ 10.2 to 82.7 µg/mL) | –
14 | O=C(Nc1ccccc1)N1CCc2c(cnn2Cc2cn(-c3ccc(I)cc3)nn2)C1 | – | 24.7 to 200 µM | 24.7 to 200 (≈ 13 to 105 µg/mL) | 24.7 to 200 (≈ 13 to 105 µg/mL) | –
15 | N#Cc1ccc(-c2nnc(-c3n[nH]cc3-c3ccc(Cl)cc3)o2)cc1 | – | – | – | – | MIC [5]: 25 µg/mL (≈ 71.9 µM); Ratio [7]: 4
16 | O=C(NCCCn1ncc2ccc([N+](=O)[O-])cc21)N1C(=O)C(Cl)C1c1ccccc1Cl (configuration not stated) | 6.25 to 50 (≈ 13.5 to 108 µM) | – | – | – | –

Row | Structure (SMILES) | MIC [1] [µg/mL] | MIC [2] | MIC [3] [µM] | MIC [4] [µM] | also measured
17 | O=C(NCCCn1ncc2ccc([N+](=O)[O-])cc21)N1C(=O)C(Cl)C1c1ccc(Cl)cc1 (configuration not stated) | 6.25 (≈ 13.5 µM) | – | – | – | –
18 | O=C(Nc1ccccc1)N1CCc2c(cnn2Cc2cn(-c3ccc(Cl)cc3Cl)nn2)C1 | – | 24.7 to 200 µM | 24.7 to 200 (≈ 11.6 to 93.7 µg/mL) | 24.7 to 200 (≈ 11.6 to 93.7 µg/mL) | –
19 | O=C(Nc1ccccc1)N1CCc2c(cnn2Cc2cn(-c3ccccc3Br)nn2)C1 | – | 24.7 to 200 µM | 24.7 to 200 (≈ 11.8 to 95.7 µg/mL) | 24.7 to 200 (≈ 11.8 to 95.7 µg/mL) | –
20 | CC[C@@H](CO)NCCN[C@@H](CC)CO [ETHAMBUTOL] | 0.2 to 4 (≈ 0.979 to 19.6 µM) | 3.13 µg/mL | – | – | –
21 | CC1=NN(C(=O)c2cc(-c3ccc(Cl)cc3)n[nH]2)C(=O)/C1=N\Nc1ccc(Cl)cc1 | – | 0.6 µg/mL | – | – | IC50 (HepG2): 306 µM
22 | O=C(Nc1ccccc1)N1CCc2c(cnn2Cc2cn(-c3cc(Cl)cc(Cl)c3)nn2)C1 | – | 24.7 to 200 µM | 24.7 to 200 (≈ 11.6 to 93.7 µg/mL) | 24.7 to 200 (≈ 11.6 to 93.7 µg/mL) | –
23 | O=C(NCCCn1ncc2ccc([N+](=O)[O-])cc21)N1C(=O)C(Cl)C1c1ccccc1[N+](=O)[O-] (configuration not stated) | 6.25 to 50 (≈ 13.2 to 106 µM) | – | – | – | –
24 | COc1cccc(-n2cc(Cn3ncc4c3CCN(C(=O)Nc3ccccc3)C4)nn2)c1 | – | 24.7 to 200 µM | 24.7 to 200 (≈ 10.6 to 85.9 µg/mL) | 24.7 to 200 (≈ 10.6 to 85.9 µg/mL) | –
25 | Cc1ccc(C2C(Cl)C(=O)N2C(=O)NCCCn2ncc3ccc([N+](=O)[O-])cc32)cc1 (configuration not stated) | 6.25 to 50 (≈ 14.1 to 113 µM) | – | – | – | –
26 | COC(=O)C1=C(C)NC(C)=C(C(=O)OC)C1c1cn(-c2ccccc2)nc1-c1ccc([N+](=O)[O-])cc1 | – | 0.02 µg/mL | – | – | –
27 | O=C(Nc1ccccc1)N1CCc2c(cnn2Cc2cn(-c3ccc([N+](=O)[O-])cc3)nn2)C1 | – | 24.7 to 200 µM | 24.7 to 200 (≈ 11 to 88.9 µg/mL) | 24.7 to 200 (≈ 11 to 88.9 µg/mL) | –
28 | Cc1ccc(-n2cc(Cn3ncc4c3CCN(C(=O)Nc3ccccc3)C4)nn2)cc1C | – | 24.7 to 200 µM | 24.7 to 200 (≈ 10.6 to 85.5 µg/mL) | 24.7 to 200 (≈ 10.6 to 85.5 µg/mL) | –
29 | O=C(NCCCn1ncc2ccc([N+](=O)[O-])cc21)N1C(=O)C(Cl)C1c1cccc([N+](=O)[O-])c1 (configuration not stated) | 6.25 to 50 (≈ 13.2 to 106 µM) | – | – | – | –
30 | COc1ccccc1C1C(Cl)C(=O)N1C(=O)NCCCn1ncc2ccc([N+](=O)[O-])cc21 (configuration not stated) | 6.25 to 50 (≈ 13.7 to 109 µM) | – | – | – | –
31 | O=C(Nc1ccccc1)N1CCc2c(cnn2Cc2cn(-c3cccc(Cl)c3)nn2)C1 | – | 24.7 to 200 µM | 24.7 to 200 (≈ 10.7 to 86.8 µg/mL) | 24.7 to 200 (≈ 10.7 to 86.8 µg/mL) | –

From ChEMBL document CHEMBL4130388, “Recent advances of pyrazole-containing derivatives as anti-tubercular agents” (Eur J Med Chem, 2017)
